Laboratory results taken from patent publication EP0004335A2, “Prostacyclin analogs, process and intermediates for their preparation and their use as medicines” (HOECHST AKTIENGESELLSCHAFT, priority 1978, dated 1979).

Test system: durch Arachidonsäure in Humanblut (in vitro) induzierten Thrombocytenaggregation
Experiment: Inhibition of arachidonic acid-induced platelet aggregation in human blood (in vitro)
Type: cell-based
Conditions: Konzentration, die eine Aggregation von 50% der vorhandenen Thrombocyten verhindert
Source text: Die Thrombocyten aggregationshemmende Wirkung der erfindungsgemäßen Verbindungen wurde an der durch Arachidonsäure in Humanblut (in vitro) induzierten Thrombocytenaggregation ermittelt. In der folgenden Tabelle ist die Konzentration an dem jeweiligen Prostacyclin-Derivat angegeben, die eine Aggregation von 50% der vorhandenen Thrombocyten verhindert (IC50).

## CCOCC(C)(C)C(O)C=CC1C(O)CC2OC(=CCCCC(=O)O)CC21 (stereo not drawn) [Beispiel 3 b), Natriumsalz des 16,16-Dimethyl-18-oxa-PGI2]
  IC50: 540 nM

## COC(=O)CCCC=C1CC2C(CC(O)C2C=CC(O)C(C)(C)OC2CCCCC2)O1 (stereo not drawn) [Beispiel 2 e), 16-Cyclohexyloxy-16-methyl-18,19-20-trinor-PGI -methylester]
  IC50: 10000 nM

## COCCC(C)(C)C(O)C=CC1C(O)CC2OC(=CCCCC(=O)O)CC21 (stereo not drawn) [Beispiel 3 a), Kaliumsalz des 16,16-Dimethyl-19-oxa-PGI2]
  IC50: 1200 nM
